Reference: paper PMC8000814, “Structure-Based Virtual Screening: Identification of a Novel NS2B-NS3 Protease Inhibitor with Potent Antiviral Activity against Zika and Dengue Viruses” (Microorganisms, 2021)

Biological target: T1, ZIKV NS2B-NS3 protease (Zika virus ZIKV/H. sapiens/FrenchPolynesia/10087PF/2013, UniProt A0A024B7W1)
T1 construct: recombinant NS2B-NS3 protease cut from the ZIKV genome polyprotein; codon-optimized synthetic gene in pET22b; His-tag fused; E. coli BL21(DE3); Ni-NTA purified
T1 sequence (A0A024B7W1 1503-1680): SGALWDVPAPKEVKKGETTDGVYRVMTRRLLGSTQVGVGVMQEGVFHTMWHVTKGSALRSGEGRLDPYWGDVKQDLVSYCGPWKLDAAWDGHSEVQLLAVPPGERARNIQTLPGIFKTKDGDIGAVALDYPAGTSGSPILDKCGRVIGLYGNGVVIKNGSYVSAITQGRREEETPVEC
Assay: fluorescence-based protease inhibition assay, ex […] nm / em […] nm
Type: biochemical
Details: read-out: apparent IC50

## O=[N+]([O-])c1ccc(Nc2ccc3[nH]ncc3c2)nc1N1CCNCC1 [compound 1]
  IC50: 1.5 µM
